Data published in patent US20230293517A1, “ANTAGONIST COMPOUNDS” (AdoRx Therapeutics Limited, priority 2020, published 2023).

Columns and labels:
[1] = molecular target: human Adenosine A1 receptor (Homo sapiens (Human), UniProt P30542); assay: Adenosine receptor TR-FRET binding assay (A1); conditions: inhibition of binding of 100 nM CA200645, CHO cell membranes
Summary of the method: (§1)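 CHO cell membranes carrying terbium-tagged human A1, A2a, A2b or A3 receptors were incubated 2 h at room temperature with compound and CA200645 tracer (A2b 30 nM; others 100 nM). Specific binding from time-resolved FRET ratios, minus 10 μM XAC background; IC50 converted to Ki (Cheng–Prusoff).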

[2] = molecular target: human Adenosine A3 receptor (Homo sapiens (Human), UniProt P0DMS8); assay: Adenosine receptor TR-FRET binding assay (A3); conditions: inhibition of binding of 100 nM CA200645, CHO cell membranes
Sequence of human Adenosine A3 receptor (P0DMS8 whole entry): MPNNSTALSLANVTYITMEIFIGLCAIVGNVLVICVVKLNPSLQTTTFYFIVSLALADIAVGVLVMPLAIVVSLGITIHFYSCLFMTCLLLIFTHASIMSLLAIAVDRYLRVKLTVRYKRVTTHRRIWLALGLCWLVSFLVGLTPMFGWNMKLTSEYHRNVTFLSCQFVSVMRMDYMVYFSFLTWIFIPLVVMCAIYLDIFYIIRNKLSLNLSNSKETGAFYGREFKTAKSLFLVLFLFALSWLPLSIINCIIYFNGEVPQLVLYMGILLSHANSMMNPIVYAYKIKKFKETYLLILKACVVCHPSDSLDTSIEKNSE
Summary of the method: as §1

[3] = molecular target: human Adenosine A2b receptor (Homo sapiens (Human), UniProt P29275); assay: Adenosine receptor TR-FRET binding assay (A2b); conditions: TR-FRET, inhibition of binding of 30 nM CA200645, CHO cell membranes
Sequence of human Adenosine A2b receptor (P29275 whole entry): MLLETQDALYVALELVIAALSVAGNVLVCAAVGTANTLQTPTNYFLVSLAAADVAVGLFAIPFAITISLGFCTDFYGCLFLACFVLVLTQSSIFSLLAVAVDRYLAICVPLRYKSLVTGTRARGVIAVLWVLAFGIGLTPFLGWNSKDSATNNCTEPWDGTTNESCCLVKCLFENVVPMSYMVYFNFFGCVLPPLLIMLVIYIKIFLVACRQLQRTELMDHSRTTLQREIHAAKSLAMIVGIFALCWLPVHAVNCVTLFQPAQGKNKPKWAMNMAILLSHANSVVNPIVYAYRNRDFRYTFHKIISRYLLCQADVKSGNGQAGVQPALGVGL
Summary of the method: as §1

[4] = molecular target: human Adenosine A2a receptor (Homo sapiens (Human), UniProt P29274); assay: Adenosine receptor TR-FRET binding assay (A2a); conditions: inhibition of binding of 100 nM CA200645, CHO cell membranes
Sequence of human Adenosine A2a receptor (P29274 whole entry): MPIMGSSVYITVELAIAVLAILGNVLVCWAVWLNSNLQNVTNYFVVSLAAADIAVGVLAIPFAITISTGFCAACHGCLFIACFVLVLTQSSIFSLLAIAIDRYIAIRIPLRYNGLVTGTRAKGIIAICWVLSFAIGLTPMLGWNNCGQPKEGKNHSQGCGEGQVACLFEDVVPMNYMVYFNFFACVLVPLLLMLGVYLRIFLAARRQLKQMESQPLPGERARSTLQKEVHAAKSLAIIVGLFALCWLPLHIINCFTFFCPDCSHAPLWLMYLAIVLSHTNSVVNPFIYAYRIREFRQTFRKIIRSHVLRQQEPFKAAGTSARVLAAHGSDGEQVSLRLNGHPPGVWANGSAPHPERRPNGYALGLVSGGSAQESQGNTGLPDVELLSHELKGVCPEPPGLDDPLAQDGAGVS
Summary of the method: as §1

Sequence of human Adenosine A1 receptor (P30542 whole entry): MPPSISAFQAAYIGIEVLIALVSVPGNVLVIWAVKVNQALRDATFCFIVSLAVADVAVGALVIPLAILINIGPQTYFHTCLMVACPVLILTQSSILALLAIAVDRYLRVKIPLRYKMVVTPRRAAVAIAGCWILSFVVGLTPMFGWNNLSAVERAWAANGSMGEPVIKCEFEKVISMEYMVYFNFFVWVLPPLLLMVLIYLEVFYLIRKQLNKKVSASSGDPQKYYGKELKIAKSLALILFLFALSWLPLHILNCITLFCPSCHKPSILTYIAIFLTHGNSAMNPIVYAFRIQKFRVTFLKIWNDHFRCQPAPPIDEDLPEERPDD

Structure (SMILES)	Ki [1] [nM]	Ki [2] [nM]	Ki [3] [nM]	Ki [4] [nM]
Cc1cc(-c2sc(NC(=O)N3CCOC[C@@H]3C)nc2-c2cccc(C#N)c2)cc(C)n1 [Example 6.86, (3S)-N-[4-(3-Cyanophenyl)-5-(2,6-dimethyl-4-pyridyl)thiazol-2-yl]-3-methyl-morpholine-4-carboxamide]	2	181	1.9	0.68
Cc1cc(-c2sc(NC(=O)N3CCC34COC4)nc2-c2cccc(C#N)c2)cc(C)n1 [Example 6.87, N-[4-(3-Cyanophenyl)-5-(2,6-dimethyl-4-pyridyl)thiazol-2-yl]-6-oxa-1-azaspiro[3.3]heptane-1-carboxamide]	57	37	6.7	1.75
Cc1cc(-c2sc(NC(=O)N3CCC4(CC3)CN(C)C(=O)N4C)nc2-c2cccc(C#N)c2)cc(C)n1 [Example 6.89, N-[4-(3-Cyanophenyl)-5-(2,6-dimethyl-4-pyridyl)thiazol-2-yl]-1,3-dimethyl-2-oxo-1,3,8-triazaspiro[4.5]decane-8-carboxamide]	326	300	3.5	1.01
Cc1cc(-c2sc(NC(=O)N3CC(=O)N[C@@H](C)C3)nc2-c2cccc(C#N)c2)cc(C)n1 [Example 6.90, (3S)-N-[4-(3-Cyanophenyl)-5-(2,6-dimethyl-4-pyridyl)thiazol-2-yl]-3-methyl-5-oxo-piperazine-1-carboxamide]	63	106	10.7	3.16
Cc1cc(-c2sc(NC(=O)N3CCC(S(C)(=O)=O)CC3)nc2-c2cccc(C#N)c2)cc(C)n1 [Example 6.95, N-[4-(3-Cyanophenyl)-5-(2,6-dimethyl-4-pyridyl)thiazol-2-yl]-4-methylsulfonyl-piperidine-1-carboxamide]	29	560	4.6	1.05
CC(=O)N1C[C@H]2C[C@@H]1CN2C(=O)Nc1nc(-c2cccc(C#N)c2)c(-c2cc(C)nc(C)c2)s1 [Example 6.101, (1R,4R)-5-Acetyl-N-[4-(3-cyanophenyl)-5-(2,6-dimethyl-4-pyridyl)thiazol-2-yl]-2,5-diazabicyclo[2.2.1]heptane-2-carboxamide]	30	853	3	1.1
Cc1cc(-c2sc(NC(=O)N3C[C@@H]4C[C@H]3CN4C)nc2-c2cccc(C#N)c2)cc(C)n1 [Example 6.102, (1S,4S)-N-[4-(3-Cyanophenyl)-5-(2,6-dimethyl-4-pyridyl)thiazol-2-yl]-5-methyl-2,5-diazabicyclo[2.2.1]heptane-2-carboxamide]	64	195	10.5	7.42
Cc1cc(-c2sc(NC(=O)N3CCC4(CC3)CN(C)C(=O)N4)nc2-c2cccc(C#N)c2)cc(C)n1 [Example 6.103, N-[4-(3-Cyanophenyl)-5-(2,6-dimethyl-4-pyridyl)thiazol-2-yl]-3-methyl-2-oxo-1,3,8-triazaspiro[4.5]decane-8-carboxamide]	61	475	1.7	0.68
Cc1cc(-c2sc(NC(=O)N3CCC4(CN(C)CCO4)C3)nc2-c2cccc(C#N)c2)cc(C(F)F)n1 (stereo not drawn) [Example 6.107, N-[4-(3-Cyanophenyl)-5-[2-(difluoromethyl)-6-methyl-4-pyridyl]thiazol-2-yl]-9-methyl-6-oxa-2,9-diazaspiro[4.5]decane-2-carboxamide]	69	156	2.3	1.37
Cc1cc(-c2sc(NC(=O)N3CCC(C)(C#N)C3)nc2-c2cccc(C#N)c2)cc(C2COC2)n1 (stereo not drawn) [Example 6.110, 3-Cyano-N-[4-(3-cyanophenyl)-5-[2-methyl-6-(oxetan-3-yl)-4-pyridyl]thiazol-2-yl]-3-methyl-pyrrolidine-1-carboxamide]	13	956	3.6	0.26
Cc1cc(-c2sc(NC(=O)N3CCC(N)(C#N)CC3)nc2-c2cccc(C#N)c2)cc(C)n1 [Example 7.2, 4-Amino-4-cyano-N-[4-(3-cyanophenyl)-5-(2,6-dimethyl-4-pyridyl)thiazol-2-yl]piperidine-1-carboxamide]	8	337	1	0.2
CC(=O)N=S1(=O)CCN(C(=O)Nc2nc(-c3cccc(C#N)c3)c(-c3cc(C)nc(C)c3)s2)CC1 [Example 8, 1-Acetylimino-N-[4-(3-cyanophenyl)-5-(2,6-dimethyl-4-pyridyl)thiazol-2-yl]-1-oxo-1,4-thiazinane-4-carboxamide]	59	776	1.8	1.83
Cc1cc(-c2sc(NC(=O)N3CC4(COC4)C3)nc2-c2cccc(C#N)c2)cc(CO)n1 [Example 9, N-[4-(3-Cyanophenyl)-5-[2-(hydroxymethyl)-6-methyl-4-pyridyl]thiazol-2-yl]-2-oxa-6-azaspiro[3.3]heptane-6-carboxamide]	47	2020	5.3	0.61
Cc1cc(-c2sc(NC(=O)N3CCC4(CC3)CNC4=O)nc2-c2cccc(C#N)c2)cc(CO)n1 [Example 9.1]	95	1000	7	0.78
Cc1cc(-c2sc(NC(=O)N3CC[S+]([O-])CC3)nc2-c2cccc(C#N)c2)cc(CO)n1 [Example 9.3]	29	1510	8.1	1.11
Cc1cc(-c2sc(NC(=O)N3CCN(C4COC4)CC3)nc2-c2cccc(C#N)c2)cc(CO)n1 [Example 9.4]	410	1540	20.1	4.19
Cc1cc(-c2sc(NC(=O)N3CCC4(CC3)C(=O)N(C)C(=O)N4C)nc2-c2cccc(C#N)c2)cc(CO)n1 [Example 9.5]	174	699	7.5	2.28
Cc1cc(-c2sc(NC(=O)N3CCC(C#N)CC3)nc2-c2cccc(C#N)c2)cc(CO)n1 [Example 9.6]	12	369	2.9	0.51
Cc1cc(-c2sc(NC(=O)N3CC4(CCOC4)C3)nc2-c2cccc(C#N)c2)cc(C(C)(C)O)n1 [Example 12.1, N-[4-(3-Cyanophenyl)-5-[2-(1-hydroxy-1-methyl-ethyl)-6-methyl-4-pyridyl]thiazol-2-yl]-6-oxa-2-azaspiro[3.4]octane-2-carboxamide]	7	1240	3.1	0.2
Cc1cc(-c2sc(NC(=O)N3CCNC[C@@H]3C)nc2-c2cccc(C#N)c2)cc(C)n1 [Example 13.4, (2S)-N-[4-(3-Cyanophenyl)-5-(2,6-dimethyl-4-pyridyl)thiazol-2-yl]-2-methyl-piperazine-1-carboxamide]	54	54	19.6	5.13
Cc1cc(-c2sc(NC(=O)N3CCNC[C@@H]3CO)nc2-c2cccc(C#N)c2)cc(C)n1 [Example 13.5, (2R)-N-[4-(3-Cyanophenyl)-5-(2,6-dimethyl-4-pyridyl)thiazol-2-yl]-2-(hydroxymethyl)piperazine-1-carboxamide]	84	226	18.8	9.87
Cc1cc(-c2sc(NC(=O)N3CCNC[C@H]3CO)nc2-c2cccc(C#N)c2)cc(C)n1 [Example 13.6, (2S)-N-[4-(3-Cyanophenyl)-5-(2,6-dimethyl-4-pyridyl)thiazol-2-yl]-2-(hydroxymethyl)piperazine-1-carboxamide]	220	133	79.7	16.8
Cc1cc(-c2sc(NC(=O)N3CC4CC(C3)N4)nc2-c2cccc(C#N)c2)cc(C)n1 [Example 13.7, N-[4-(3-Cyanophenyl)-5-(2,6-dimethyl-4-pyridyl)thiazol-2-yl]-3,6-diazabicyclo[3.1.1]heptane-3-carboxamide]	174	256	13.7	7.46
Cc1cc(-c2sc(NC(=O)N3CCNC[C@H]3C)nc2-c2cccc(C#N)c2)cc(C)n1 [Example 13.8, (2R)-N-[4-(3-Cyanophenyl)-5-(2,6-dimethyl-4-pyridyl)thiazol-2-yl]-2-methyl-piperazine-1-carboxamide]	47	41	12.3	2.38
Cc1cc(-c2sc(NC(=O)N3CCC4(COCCN4)C3)nc2-c2cccc(C#N)c2)cc(C)n1 (stereo not drawn) [Example 13.9]	225	646	14.9	2.01
Cc1cc(-c2sc(NC(=O)N3CCN[C@H](C(F)(F)F)C3)nc2-c2cccc(C#N)c2)cc(C)n1 [Example 13.10, (3S)-N-[4-(3-Cyanophenyl)-5-(2,6-dimethyl-4-pyridyl)thiazol-2-yl]-3-(trifluoromethyl)piperazine-1-carboxamide]	61	573	14.5	4.56
Cc1cc(-c2sc(NC(=O)N3CC4CCC(C3)N4)nc2-c2cccc(C#N)c2)cc(C)n1 [Example 13.11, N-[4-(3-Cyanophenyl)-5-(2,6-dimethyl-4-pyridyl)thiazol-2-yl]-3,8-diazabicyclo[3.2.1]octane-3-carboxamide]	132	226	58.4	12.9
